Assays:
Assay type in all cases: cell-based
[1] = tested on: ACH2 cells (HIV-1 infected); experiment: Cell viability by trypan blue exclusion, 48 hours; conditions: HIV-1 infected; for % Inhibition (percent dead cells) ACH2: 10 μM, 48 hours
Description: (§1) TZM-bl cell lines were grown in Dulbecco's modified Eagle's medium supplemented with fetal bovine serum (FBS) (10%, v/v), 2 mM L-glutamine, and antibiotics (penicillin 100 U/ml, streptomycin […]) (cDMEM). HCT116 WT and HCT116 Dicer−/−cell lines were grown in McCoy's medium supplemented with FBS (10%, v/v), 2mM L-glutamine, and antibiotics (penicillin 100 U/ml, streptomycin […]). CEM, ACH2, Jurkat and U937 cells were grown in RPMI 1640 supplemented with FBS, L-glutamine, and antibiotics (penicillin 100 U/ml, streptomycin […]). All cell lines were maintained at 37° C. in 5% (v/v) CO2. […]
(§2) In brief, the inhibition studies were carried out as follows. HIV-1 infected cells ACH2, J1.1, OM10.1, U1 and uninfected CEM, Jurkat T-cells, and U937 were cultured in media. The appropriate inhibitor was added at a concentration of 10 μM. Cells were treated for 48 hours and cell viability was determined using trypan blue exclusion method. Results of such a screen for 19 inhibitors is shown in Table 1 where percent dead cells are indicated each drug tested.
(§3) Again HIV-1 infected and uninfected cells were treated with eighteen Formula I compounds at a drug concentration of 50 nm. Forty-eight hours after treatment, cytotoxicity was determined by trypan blue dye exclusion. Percent inhibition was calculated after obtaining the cell density for each well of the tissue culture plate at the end of 48 hrs.

[2] = tested on: Jurkat T-cells (uninfected); experiment: Cell viability by trypan blue exclusion, 48 hours; conditions: for % Inhibition (percent dead cells) Jurkat: 10 μM, 48 hours
Description: as §1, §2, §3

CEM cells (uninfected) = experiment: Cell viability by trypan blue exclusion, 48 hours; conditions: for % Inhibition (percent dead cells) CEM: 10 μM, 48 hours
Description: (§4) TZM-bl cell lines were grown in Dulbecco's modified Eagle's medium supplemented with fetal bovine serum (FBS) (10%, v/v), 2 mM L-glutamine, and antibiotics (penicillin 100 U/ml, streptomycin […]) (cDMEM). HCT116 WT and HCT116 Dicer−/−cell lines were grown in McCoy's medium supplemented with FBS (10%, v/v), 2mM L-glutamine, and antibiotics (penicillin 100 U/ml, streptomycin […]). CEM, ACH2, Jurkat and U937 cells were grown in RPMI 1640 supplemented with FBS, L-glutamine, and antibiotics (penicillin 100 U/ml, streptomycin […]). All cell lines were maintained at 37° C. in 5% (v/v) CO2.
(§5) ACH2 cells are infected with HIV-1; TZM-bl cells contain a stably-integrated HIV-1 LTR-Luciferase reporter; CEM, Jurkat, and U937 cells are uninfected. Transfections were carried out using Attractene (Qiagen) lipid reagent. Cells were cultured to confluence and pelleted at 4° C. for 15 min at 3,000 rpm. The cell pellets were washed twice with 25 ml of phosphate-buffered saline (PBS) with Ca2+ and Mg2+ (Quality Biological) and centrifuged once more. Cell pellets were resuspended in lysis buffer (50 mM Tris-HCl, pH 7.5, 120 mM NaCl, 5 mM EDTA, 0.5%, v/v, NP-40, 50 mM NaF, 0.2 mM Na3VO4, 1 mM DTT, one complete protease cocktail tablet/50 ml (Roche) and incubated on ice for 20 min, with gentle vortexing every 5 min. Cell lysates were transferred to eppendorf tubes and were centrifuged at 10,000 rpm for 10 min. Supernatants were transferred to a fresh tube where protein concentrations were determined using Bio-Rad protein assay (Bio-Rad, Hercules, Calif.).
as §2, §3

U937 cells (uninfected) = experiment: Cell viability by trypan blue exclusion, 48 hours; conditions: for % Inhibition (percent dead cells) U937: 10 μM, 48 hours
Description: as §4, §5, §2, §3

[3] = tested on: J1.1 cells (HIV-1 infected); experiment: Cell viability by trypan blue exclusion, 48 hours; conditions: HIV-1 infected; for % Inhibition (percent dead cells) J1.1: 10 μM, 48 hours
Description: as §2, §3

[4] = tested on: OM10.1 cells (HIV-1 infected); experiment: Cell viability by trypan blue exclusion, 48 hours; conditions: HIV-1 infected; for % Inhibition (percent dead cells) OM10.1: 10 μM, 48 hours
Description: as §2, §3

[5] = tested on: U1 cells (HIV-1 infected); experiment: Cell viability by trypan blue exclusion, 48 hours; conditions: HIV-1 infected; for % Inhibition (percent dead cells) U1: 10 μM, 48 hours
Description: as §2, §3

[6] = tested on: HIV-1 infected and uninfected cells; experiment: Classification of inhibitors by effect on viability of infected versus uninfected cells; conditions: high
Excerpt: The inhibitors were classified into three categories: high, moderate or poor, according to their effect on cellular viability in both HIV-1 infected and uninfected cells. Among the compounds tested in this study, CR8, a purine analog bearing a 2-pyridyl group para to the phenyl ring position 6 of the purine was the most promising drug candidate that killed HIV-1 infected cells, while having little or no effect on the death of uninfected cells.

HIV-1 LTR-CAT reporter = experiment: CAT assay of Tat-mediated transactivation in HCT116 WT and Dicer-/- cells; conditions: HCT116 WT (Dicer) versus Dicer-/-; 48 hrs; Flavopiridol, CR8#13, F07#13 100 nm, 9AA 1000 nm
Description: Six hours later, the transfected cells were treated with DMSO, Flavopirodol (100 nm), CR8#13 (100 nm), F07#13 (100 nm), and 9AA (1000 nm). Treated cells were incubated in complete DMEM for 48 hrs at 37° C. Cells were harvested and cell extracts were used for CAT analysis. One tenth the amount of HCT116 Dicer−/−extract compared to HCT116 WT was used for CAT analysis. […] The corresponding bar graphs in A and B show values that represent the percentage of conversion of the [14C] chloramphenicol substrate in the CAT assay.
Various cells lines were transfected with the HIV-1 LTRCAT plasmid and pc-Tat to initiate the LTR transcription, and subsequently subjected to various drug treatments. After 48 hrs, cells were lysed and CAT assays were performed as previously described (Guendel et al, 2009; Van Duyne et al, 2008; Easley et al, 2010).
To evaluate the role on microRNA machinery in inhibition of viral transcription activity, HCT116 colon carcinoma cell lines that either contained a WT Dicer (HCT116 WT) or lacked the Dicer protein (HCT116 Dicer-−/−) were first transfected with the HIV-1 LTR-CAT reporter construct. The HIV-1 LTR transcription was activated with pc-Tat and following incubation for 6 hours was treated with DMSO (negative control), Flavopiridol (positive control), CR8#13, F07#13, or 9AA.
Cells were harvested 48 hrs-post treatment and processed for CAT assays (FIGS. 3A and B). […] Based on this observation the inventors hypothesize that the microRNA machinery, Dicer and Drosha, plays an inhibitory role in HIV-1 transcription.

[7] = 10 μM, moderate or poor by effect on viability of infected and uninfected cells

| SMILES | % Inhibition (percent dead cells) ACH2 [1] | % Inhibition (percent dead cells) Jurkat [2] | % Inhibition (percent dead cells) CEM (CEM cells (uninfected)) | % Inhibition (percent dead cells) U937 (U937 cells (uninfected)) | % Inhibition (percent dead cells) J1.1 [3] | % Inhibition (percent dead cells) OM10.1 [4] | % Inhibition (percent dead cells) U1 [5] | Selectivity [6, 7] | further results |
| --- | --- | --- | --- | --- | --- | --- | --- | --- | --- |
| CN1C(=O)C(=C2Nc3ccccc3C2=NO)c2cccc(Br)c21 [1-methyl-7-bromo-indirubin-3′-oxime] | − (1-5%) | − (1-5%) | − (1-5%) | − (1-5%) | − (1-5%) | − (1-5%) | − (1-5%) | Poor | – |
| Nc1c2ccccc2nc2ccccc12 [9AA] | – | – | – | – | – | – | – | – | inhibition of viral transcription (CAT) (HIV-1 LTR-CAT reporter): only moderate inhibitory effects |
| CC(C)c1cnn2c(NCc3ccc(-c4ccccn4)cc3)nc(N[C@H](CO)C(C)O)nc12 (stereo partly drawn) [MRT3-007, (2R, 3R)-2-(8-isopropyl-4-(4-(pyridine-2-yl)benzylamino)pyrazolo[1,5-α]-1,3,5-triazine-2-ylamino)butane-1,3-diol] | – | – | – | – | – | – | – | – | inhibition at 0.05 µM ([1]; Human immunodeficiency virus 1, ACH-2, 48 h, 50 nM, 48 hrs, read-out: Inhibition Percentage ACH2): 50%; inhibition at 0.05 µM ([2]; Homo sapiens, Jurkat, 50 nM, 48 hrs, read-out: Inhibition Percentage Jurkat): 25%; inhibition at 0.05 µM (CEM cells (uninfected); Homo sapiens, CCRF-CEM, 48 h, 50 nM, 48 hrs, read-out: Inhibition Percentage CEM): 25%; inhibition at 0.05 µM (U937 cells (uninfected); Homo sapiens, U-937, 50 nM, 48 hrs, read-out: Inhibition Percentage U937): 25%; inhibition at 0.05 µM ([3]; Human immunodeficiency virus 1, 48 h, 50 nM, 48 hrs, read-out: Inhibition Percentage J1.1): 50%; inhibition at 0.05 µM ([4]; Human immunodeficiency virus 1, 50 nM, 48 hrs, read-out: Inhibition Percentage OM10.1): 50%; inhibition at 0.05 µM ([5]; Human immunodeficiency virus 1, 48 h, 50 nM, 48 hrs, read-out: Inhibition Percentage U1): 50%; Selectivity ([6]; 50 nM, moderate or poor): Moderate |
| COc1ccnc2[nH]cc(-c3ccnc(N)n3)c12 [Meriolin 3] | ++ (~50%) | − (1-5%) | − (1-5%) | − (1-5%) | + (~25%) | − (1-5%) | − (1-5%) | Moderate | – |
| CCOc1ccnc2[nH]cc(-c3ccnc(N)n3)c12 [Meriolin4] | +++ (~75%) | ++ (~50%) | + (~25%) | ++ (~50%) | +++ (~75%) | +++ (~75%) | +++ (~75%) | High | – |
| Nc1nccc(-c2c3c(O)ccnc3n3c(N)nccc23)n1 [Variollin B] | ++ (~50%) | − (1-5%) | − (1-5%) | − (1-5%) | + (~25%) | − (1-5%) | − (1-5%) | Moderate | – |
| CC[C@H](CO)Nc1nc(Nc2cccc(-c3ccccn3)c2)c2ncn(C(C)C)c2n1 [R-DRF053] | − (1-5%) | − (1-5%) | − (1-5%) | − (1-5%) | − (1-5%) | − (1-5%) | − (1-5%) | Poor | – |
| CCCOc1ccnc2[nH]cc(-c3ccnc(N)n3)c12 [Meriolin5] | +++ (~75%) | − (1-5%) | − (1-5%) | ++ (~50%) | ++ (~50%) | ++++ (~90%) | − (1-5%) | High | – |
| CC(C)Oc1ccnc2[nH]cc(-c3ccnc(N)n3)c12 [Meriolin 6] | +++ (~75%) | − (1-5%) | − (1-5%) | ++ (~50%) | +++ (~75%) | ++++ (~90%) | − (1-5%) | High | – |
| CC[C@H](CO)Nc1nc(NCc2ccc(-c3ccccn3)cc2)n2ncc(C(C)C)c2n1 [MRT3-028, R-2-(8-isopropyl-4-(4-(pyridine-2-yl)benzylamino)pyrazolo[1,5-α]-1,3,5-triazine-2-ylamino)butan-1-ol] | – | – | – | – | – | – | – | – | Inhibition Percentage ACH2 ([1]; 50 nM, 48 hrs): +++ (~75%); Inhibition Percentage CEM (CEM cells (uninfected); 50 nM, 48 hrs): ++ (~50%); Inhibition Percentage J1.1 ([3]; 50 nM, 48 hrs): +++ (~75%); Inhibition Percentage U1 ([5]; 50 nM, 48 hrs): + (~25%); Selectivity ([6]; 50 nM, moderate or poor): High |

Source: US20120149708A1, “MODULATORS OF VIRAL TRANSCRIPTION, AND METHODS AND COMPOSITIONS THEREWITH” (George Mason University, priority 2010, published 2012)
